Where no end group is shown, it is not given here. [ ]: non-standard residue; d: D form. Hyp = O=C(O)[C@@H]1C[C@@H](O)CN1
Key:
human dermal fibroblasts [1] = experiment: Collagen assay (Sircol): collagen synthesis by dermal fibroblasts; assay type: cell-based; details: 0.5 mg/ml collagen peptide, stimulation for three weeks, photometric at 492 nm, FIG. 1A
Experimental: (§1) The human cells used were obtained from tebu-bio GmbH, Offenbach, Germany. The chondrocytes (Cat. No. 402-05a) or dermal fibroblasts (Cat. No. 106-05a) were first sown in 12-well culture plates and cultured at 37° C., 5% CO2 in Ham's F12 medium, to which 10% fetal calf serum, 20 U/ml penicillin-streptomycin and 50 μg/ml ascorbic acid were added. On every other day, the culture medium was replaced by new culture medium until the cells had reached 80% confluence. To investigate the influence of the collagen peptides according to the invention of SEQ ID NO: 7, 8, 9 and 10 on the biosynthesis of matrix proteins, the cell culture medium was then replaced by a special stimulation medium to which 0.5 mg/ml of the specific collagen peptides according to the invention were added.
To investigate the collagen metabolism, the amount of newly synthesized collagen was determined after stimulating the cells with 0.5 mg/ml BCP for three weeks. The synthesized collagen was isolated using the Sircol assay (Article No. 054S5000, 2019, tebu-bio, Offenbach, Germany, or Biocolor Ltd., UK) according to the manufacturer's instructions. In brief, the culture medium was initially discarded and the adherent cell layers were digested with 0.1 mg pepsin solution in 0.5 M acetic acid at 4° C. overnight. The cell suspensions were neutralized by adding 100 μl of an acid-neutralizing reagent. The synthesized collagen was then separated off by adding 200 μl of an isolation and concentration solution with vigorous shaking at 4° C. overnight. After centrifugation (12,000 rpm, 10 min) and discarding the supernatant, the isolated collagen was resuspended in 1 ml of Sircol dye solution. After 30 minutes of shaking and another centrifugation, the collagen pellet was covered with 750 μl of cold acidic solid washing reagent. After another centrifugation, the supernatant was again discarded and the enriched collagen was taken up in 250 μl of alkaline solution. In each case 200 μl of the sample solutions were used for photometric quantification of the synthesized collagen. The absorbance was measured at a wavelength of 492 nm. The amount of collagen synthesized in each case was determined on the basis of standardized collagen solutions.

human dermal fibroblasts [2] = experiment: Proteoglycan assay (Blyscan glycosaminoglycan assay): proteoglycan synthesis by dermal fibroblasts; assay type: cell-based; details: 0.5 mg/ml collagen peptide, stimulation for two weeks, photometric at 656 nm, FIG. 1B
Experimental: as §1
The Blyscan glycosaminoglycan assay (Article No. 054B3000, 2019, tebu-bio, Offenbach, Germany, or Biocolor Ltd., UK) was used to determine proteoglycans. The biosynthesis of proteoglycans was determined after stimulating dermal fibroblasts for two weeks. According to the manufacturer's instructions, after discarding the culture medium, the cell layers were covered with 1 ml of papain extraction solution and incubated for three hours at 65° C. with vigorous shaking. The cell suspensions were then centrifuged (10,000 g, 10 min) and the supernatants were collected. After adding 1 ml of Blyscan dye solution and shaking (30 min), the supernatants were centrifuged again (12,000 rpm, 10 min) and then discarded. The isolated proteoglycan pellets were resuspended in 500 μl of dissociation solution. A photometric determination of the synthesized proteoglycan in 200 μl sample solution was carried out at a wavelength of 656 nm in comparison to untreated control experiments.

Row | Substance | increased collagen synthesis by dermal fibroblasts compared to untreated controls (human dermal fibroblasts [1]) [%] | increase of synthesis of proteoglycans by dermal fibroblasts in comparison to untreated controls (human dermal fibroblasts [2]) [%]
1 | GL[P]GKMGVFGLTGPIGP[P]GPWGV[P]GHKGYLGPT (GL[Hyp]GKMGVFGLTGPIGP[Hyp]GPWGV[Hyp]GHKGYLGPT) [SEQ ID NO: 7] | 27 | 26
2 | GL[P]GKYGVHGLTGPLGP[P]GPMGI[P]GWKGFVGPT (GL[Hyp]GKYGVHGLTGPLGP[Hyp]GPMGI[Hyp]GWKGFVGPT) [SEQ ID NO: 8] | 22 | 22
3 | GP[P]GPLGMKGL[P]GVWGPFGL[P]GTPGPHGITGYKGV [SEQ ID NO: 9] | 21 | 21
4 | GP[P]GPVGTKGL[P]GFYGPLGI[P]GHPGPWGMLGTKGV [SEQ ID NO: 10] | 21 | 22

Reference: patent publication US12528857B2, “Nutritionally-optimized collagen peptide” (Gelita AG, priority 2019, dated 2026)
